Assay results as given in PMC5540273, “Progress towards a public chemogenomic set for protein kinases and a call for contributions” (PLoS ONE, 2017).

What was measured:
Assay in all cases: KINOMEscan competition binding
[1] = target: T1, BMX (Homo sapiens, UniProt P51813); settings: read-out: %Inh BMX
T1 sequence (P51813 1-675): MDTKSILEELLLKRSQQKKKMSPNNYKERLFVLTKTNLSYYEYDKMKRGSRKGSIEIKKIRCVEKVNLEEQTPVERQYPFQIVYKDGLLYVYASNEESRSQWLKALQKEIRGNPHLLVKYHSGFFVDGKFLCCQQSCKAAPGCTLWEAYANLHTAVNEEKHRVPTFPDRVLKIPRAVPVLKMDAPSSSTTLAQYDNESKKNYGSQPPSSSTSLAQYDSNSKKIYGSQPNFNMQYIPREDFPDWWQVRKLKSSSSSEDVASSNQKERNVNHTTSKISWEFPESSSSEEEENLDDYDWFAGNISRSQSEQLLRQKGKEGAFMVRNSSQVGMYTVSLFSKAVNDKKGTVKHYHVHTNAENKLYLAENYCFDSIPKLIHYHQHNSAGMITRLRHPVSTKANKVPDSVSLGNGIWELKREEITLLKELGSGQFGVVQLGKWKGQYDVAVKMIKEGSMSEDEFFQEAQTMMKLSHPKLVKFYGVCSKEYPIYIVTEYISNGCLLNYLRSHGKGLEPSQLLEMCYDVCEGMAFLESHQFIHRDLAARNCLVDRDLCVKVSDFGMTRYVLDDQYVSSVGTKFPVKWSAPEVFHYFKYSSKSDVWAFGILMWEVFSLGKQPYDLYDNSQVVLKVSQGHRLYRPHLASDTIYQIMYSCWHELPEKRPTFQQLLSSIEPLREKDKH

[2] = target: CAMKK2 (Homo sapiens, UniProt Q96RR4); settings: read-out: %Inh CAMKK2
[3] = target: CSNK2A2 (Homo sapiens, UniProt P19784); settings: read-out: %Inh CSNK2A2
[4] = target: DDR1 (Homo sapiens, UniProt Q08345); settings: read-out: %Inh DDR1
[5] = target: EIF2AK1 (Homo sapiens, UniProt Q9BQI3); settings: read-out: %Inh EIF2AK1
[6] = target: T2, EPHB6 (Homo sapiens, UniProt O15197); settings: read-out: %Inh EPHB6
T2 sequence (O15197 32-1021): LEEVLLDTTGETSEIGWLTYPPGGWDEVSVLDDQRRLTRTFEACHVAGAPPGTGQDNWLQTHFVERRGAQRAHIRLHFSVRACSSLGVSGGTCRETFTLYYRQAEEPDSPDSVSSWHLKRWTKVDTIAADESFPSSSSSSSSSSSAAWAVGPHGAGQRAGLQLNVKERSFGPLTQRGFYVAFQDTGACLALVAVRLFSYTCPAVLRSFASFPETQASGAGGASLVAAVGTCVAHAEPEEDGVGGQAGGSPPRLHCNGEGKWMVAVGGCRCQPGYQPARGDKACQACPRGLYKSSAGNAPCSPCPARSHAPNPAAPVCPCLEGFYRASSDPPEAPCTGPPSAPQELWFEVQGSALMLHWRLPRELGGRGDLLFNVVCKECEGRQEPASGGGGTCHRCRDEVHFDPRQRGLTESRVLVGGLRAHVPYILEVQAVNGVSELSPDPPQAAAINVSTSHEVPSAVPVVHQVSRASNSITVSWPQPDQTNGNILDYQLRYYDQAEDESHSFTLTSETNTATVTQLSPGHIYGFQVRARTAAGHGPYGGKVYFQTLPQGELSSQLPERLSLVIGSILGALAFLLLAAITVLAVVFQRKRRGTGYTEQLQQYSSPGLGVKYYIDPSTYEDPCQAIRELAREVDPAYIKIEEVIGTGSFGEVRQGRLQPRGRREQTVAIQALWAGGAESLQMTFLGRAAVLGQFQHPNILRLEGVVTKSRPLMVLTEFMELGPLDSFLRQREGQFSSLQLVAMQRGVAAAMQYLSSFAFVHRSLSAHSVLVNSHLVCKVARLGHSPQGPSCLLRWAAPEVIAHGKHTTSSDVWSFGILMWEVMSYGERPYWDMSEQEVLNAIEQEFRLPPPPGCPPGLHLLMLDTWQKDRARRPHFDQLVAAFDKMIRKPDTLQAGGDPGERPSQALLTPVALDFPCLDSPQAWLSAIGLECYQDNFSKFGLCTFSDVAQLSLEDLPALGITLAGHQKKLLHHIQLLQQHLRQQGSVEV

[7] = target: FGFR4 (Homo sapiens, UniProt P22455); settings: read-out: %Inh FGFR4
[8] = target: IRAK1 (Homo sapiens, UniProt P51617); settings: read-out: %Inh IRAK1
[9] = target: T3, MAK (Homo sapiens, UniProt P20794); settings: read-out: %Inh MAK
T3 sequence (P20794 1-623): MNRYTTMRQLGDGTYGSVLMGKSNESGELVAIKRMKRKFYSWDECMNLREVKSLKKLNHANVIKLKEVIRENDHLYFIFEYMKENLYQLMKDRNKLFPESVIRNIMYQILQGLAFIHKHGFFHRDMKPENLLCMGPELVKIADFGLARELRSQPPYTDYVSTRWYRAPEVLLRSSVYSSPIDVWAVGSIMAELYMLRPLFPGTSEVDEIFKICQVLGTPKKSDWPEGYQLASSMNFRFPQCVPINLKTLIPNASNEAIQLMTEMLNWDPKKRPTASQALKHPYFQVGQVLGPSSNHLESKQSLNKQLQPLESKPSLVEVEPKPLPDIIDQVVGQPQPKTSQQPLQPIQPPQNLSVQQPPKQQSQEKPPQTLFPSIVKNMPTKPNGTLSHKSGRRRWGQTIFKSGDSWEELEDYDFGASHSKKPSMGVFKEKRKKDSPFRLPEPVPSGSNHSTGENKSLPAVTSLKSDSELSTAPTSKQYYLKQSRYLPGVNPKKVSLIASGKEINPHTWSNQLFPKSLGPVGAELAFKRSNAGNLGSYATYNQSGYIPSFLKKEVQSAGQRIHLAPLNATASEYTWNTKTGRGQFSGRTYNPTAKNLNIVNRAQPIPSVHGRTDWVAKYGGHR

Row | Structure (SMILES) | inhibition at 1 µM [1] | inhibition at 1 µM [2] | inhibition at 1 µM [3] | inhibition at 1 µM [4] | inhibition at 1 µM [5] | inhibition at 1 µM [6] | inhibition at 1 µM [7] | inhibition at 1 µM [8] | inhibition at 1 µM [9]
1 | CS(=O)(=O)Cc1ccc(Nc2nccc(-c3c(-c4cccc(NC(=O)C5CCCCC5)c4)nn4ncccc34)n2)cc1 [UNC10225159A] | 37% | 0% | 1% | 96.6% | 22% | 42% | 6% | 24% | 0%
2 | Cn1cc(-c2cnc(N)c3c(-c4ccc5c(c4)CCN5C(=O)Cc4ccccc4)csc23)cn1 [UNC10225012A] | 57% | 19% | 1% | 97.7% | 7% | 98.3% | 0% | 0% | 0%
3 | O=c1cc(N2CCOCC2)nc2n(Cc3cccc(Cl)c3Cl)c(C3CC3)nn12 [UNC10225469A] | 19% | 8% | 0% | 21% | 0% | 33% | 0% | 0% | 0%
4 | COc1cccc(OC)c1C(=O)Nc1cccc(-c2nn3ccccc3c2-c2ccnc(Nc3cccc(F)c3)n2)c1 [UNC10225310A] | 21% | 0% | 23% | 99.3% | 0% | 42% | 0% | 0% | 14%
5 | Cc1ccc(NC(=O)Nc2cccc(C(F)(F)F)c2)cc1 [UNC10225187A] | 0% | 19% | 0% | 43% | 0% | 21% | 0% | 0% | 0%
